Reference: ChEMBL document CHEMBL3507680, “University of Dundee, Gates Library screen for HepG2 cell viability”

Test: Human HepG2 cell viability assay in 384 well format
Assay type: toxicity, cell-based
Design: dose 125 nL, time 70.5 hour; concentration not given beside the values
Details: HepG2 cells, read-out: Inhibition

SMILES | cytotoxicity at 70.5 h
Nc1cc(-c2c[nH]nc2C2CCCN2CCCc2ccccc2)ccn1 (stereo unspecified) | -1.57%
CCn1nccc1CN(C)C(=O)Cn1nc(C)c(C)c1C | -4.43%
CC(C)Nc1nc(O)cc(C(C)n2ncc3ccccc3c2=O)n1 (stereo unspecified) | -5.33%
CCN(CC)c1nc(O)cc(C(C)n2ncc3ccccc3c2=O)n1 (stereo unspecified) | -4.03%
Cc1cc(C(F)(F)F)nc(C2COCCN2S(C)(=O)=O)n1 (stereo unspecified) | -6.03%
CC(C)N1CC(C(=O)NCc2ccc(S(=O)(=O)N(C)C)cc2)CC1=O (stereo unspecified) | -7.28%
CNc1cccc(CC2COCCN(C(=O)c3cncs3)C2)n1 (stereo unspecified) | 1.43%
Cc1ccc(C2CCCN(S(=O)(=O)N3CCOCC3)C2)nc1 (stereo unspecified) | -4.54%
Cc1nc(NCC2CCOCC2)cc(C2CCN2S(C)(=O)=O)n1 (stereo unspecified) | -1.73%
CN(CC1(C)COC1)C(=O)c1cc(-c2ccnn2C)nc2ccccc12 | -0.845%
Cn1cc(CN2CCC(c3cc(CCO)[nH]n3)C2)cn1 (stereo unspecified) | -8.16%
Cc1cc(C)nc(C2CCN(C(=O)CO)CC2)n1 | -6.07%
CO[C@@H]1CC[C@@H](N(C)C(=O)c2cn3cc(C)ccc3n2)[C@H]1O | -9%
O=C(O)c1cccc(CN2CCCC(c3ccn[nH]3)C2)c1 (stereo unspecified) | -4.41%
CC1(C(=O)N2CCN(c3ncccn3)CC2)CNCCO1 (stereo unspecified) | -8.07%
O=C(O)c1ccccc1CN1CCCC(Cc2ccn[nH]2)C1 (stereo unspecified) | -8.52%
CSc1nsc(NC(=O)c2cc(C3CC3)nn2C)n1 | -6.09%
CCCc1cc(C(=O)Nc2nc(SC)ns2)n(C)n1 | -13.2%
O=C(O)c1cccc(CN2CCCC(Cc3ccn[nH]3)C2)c1 (stereo unspecified) | -10.2%
CN1CCC(c2nnc3n2CCN(S(=O)(=O)c2ccccc2Cl)C3)CC1 | -5.89%
CC(C)Nc1nc(O)cc(C2CC(=O)N(C3CCCCC3)C2)n1 (stereo unspecified) | -3.62%
COCCC(=O)NCCc1nc(N(C)C)ncc1-c1ccncc1 | -3.62%
Cc1noc(C)c1C(=O)N1CCC2(CCc3ccccc3C(=O)N2)C1 (stereo unspecified) | -4.04%

SMILES | cytotoxicity at 70.5 h
O=C(C1CCCCC1)N1CCCC([C@@H]2C[C@H](C(F)F)n3ncnc3N2)C1 (stereo partly specified) | -5.82%
Cc1cnc(-c2nc(C3CCN(Cc4ccccc4O)CC3)no2)cn1 | -4.91%
Cc1cnc(-c2nc(C3CCN(Cc4ccccc4Cl)CC3)no2)cn1 | -3.18%
CS(=O)(=O)c1cc(Cl)cnc1C1CCN(C(=O)C2CCOCC2)CC1 | 9.7%
Cc1nc[nH]c1CN(Cc1ccc(F)cc1)C1CC(C)(C)NC(C)(C)C1 | -2.59%
Cn1cc(C2=NOC(C(=O)NC3(c4ccccc4F)CCCC3)C2)cn1 (stereo unspecified) | 12.6%
CS(=O)(=O)c1cc(Cl)cnc1C1CCN(C(=O)C2CC2)CC1 | -0.478%
Cc1ccc(S(=O)(=O)N2CC[C@@H]3C[C@H](NC(=O)c4ccncc4)[C@@H]32)cc1 | -2.83%
Cc1ccc(S(=O)(=O)N2CC[C@@H]3C[C@H](NC(=O)c4[nH]ncc4Br)[C@@H]32)cc1 | -5.6%
Cc1nn(C)cc1S(=O)(=O)NCC(c1ccccc1Cl)N1CCCC1 (stereo unspecified) | -6.74%
COc1ccc(CC(=O)N2CCN(Cc3ccco3)C[C@H]2C)cc1OC | -5.07%
CCCn1cc(Cl)c(C(=O)N2C[C@H]3C[C@H](OC)C[C@H]3C2)n1 | 3.23%
CCn1ncc(S(=O)(=O)N[C@@H]2CCC[C@@H](n3ccnc3)[C@@H]2O)c1C | -2.3%
CC(=O)NCC(=O)NCC1(O)CCN(c2cnccn2)C1 (stereo unspecified) | 15.9%
Cc1nc(-c2c(C)noc2C)cc(C2CCN(CC(=O)N(C)C)CC2)n1 | 5.85%
Cc1noc(C)c1-c1cccc(C2CCN(CC(=O)N(C)C)CC2)n1 | -2.68%
O=C(c1cncs1)N1CCOCC(Cc2ccccn2)C1 (stereo unspecified) | -2.59%
Cc1ccc2nc(C(=O)N(C)[C@@H]3CC[C@@H](N4CCCC4)[C@@H]3O)cn2c1 | -3.38%
CC(C)c1ccc(CC2(C)Cc3cc(CC(=O)O)ccc3O2)cc1 (stereo unspecified) | 17.5%
c1cc(CN2CCC(c3ccnc4nccn34)C2)ccn1 (stereo unspecified) | -1.62%
CO[C@H]1C[C@@H]2CN(C(=O)c3ccc(C)s3)C[C@@H]2C1 | -4.22%
NC(=O)c1cnn2c(C3CCCN(C4CCOCC4)C3)ccnc12 (stereo unspecified) | -0.336%
NC(=O)c1cnn2c(C3CCN(CCO)CC3)ccnc12 | -3.75%

SMILES | cytotoxicity at 70.5 h
Cc1cc(N(C)C)cc(C2CCN(S(=O)(=O)c3cccs3)C2)n1 (stereo unspecified) | 14.4%
Cc1cc(N(C)C)cc(C2CCN(S(=O)(=O)c3cccnc3)C2)n1 (stereo unspecified) | 1.07%
Cn1ncc2ccc(C3CCCN(Cc4ccsc4)C3)nc21 (stereo unspecified) | 7.16%
Nc1nc(N)c2c(n1)OC1(CCN(C(=O)CC3CCNCC3)CC1)C2 | 8.24%
Nc1nc(N)c2c(n1)OC1(CCN(C(=O)CC3CCCNC3)CC1)C2 (stereo unspecified) | 1.11%
CC1(c2[nH]ncc2C(N)=O)CCN(c2ncccn2)CC1 | 17.1%
COc1ccc(CN(C)[C@@H]2CN(S(=O)(=O)C(C)C)C[C@H]2O)cc1 | -2.64%
CNc1cncc(C2CCCN2C(=O)CCn2ccnc2C(C)C)n1 (stereo unspecified) | -3%
CCS(=O)(=O)N1C[C@@H](O)[C@H](N(C)Cc2ccc(F)cc2)C1 | 0.693%
CN(Cc1ccc(F)cc1)[C@@H]1CN(S(=O)(=O)N(C)C)C[C@H]1O | -0.678%
Cn1ncc2ccc(C3CCCN(Cc4cccs4)C3)nc21 (stereo unspecified) | -0.364%
Cc1c(S(=O)(=O)N2CCCCC2c2nnc(-c3cccs3)o2)cnn1C (stereo unspecified) | -2.57%
COCC(=O)N1CCCCC1c1nc(N(C)C)ncc1-c1cc(C)no1 (stereo unspecified) | 21.1%
CC1(Cc2ccc(Cl)cc2)Cc2cc(CCC(=O)O)ccc2O1 (stereo unspecified) | -6.16%
CC(C)N1CCCC(CCCc2ccccn2)(C(=O)O)C1 (stereo unspecified) | -14.7%
NC(=O)C1(c2cnccn2)CCCN1Cc1cc2ccccc2o1 (stereo unspecified) | -9.2%
COCC(=O)N1CCCC1c1ccnc(Nc2cnccn2)n1 (stereo unspecified) | -7.05%
CN(Cc1ccc(F)cc1)CC1(O)CCN(C(=O)c2ccccc2)C1 (stereo unspecified) | -2.54%
CNc1cncc(C2CCCN2Cc2ccccc2OCC(=O)O)n1 (stereo unspecified) | -8.8%
Fc1ccc(CN2CCC(c3nccnc3-n3ccnc3)CC2)cc1 | 2.75%
NCc1cnn(-c2ccccc2C(=O)NCCCn2ccnc2)c1 | -6.34%
Nc1nc(C2CCN(C(=O)c3cncs3)CC2)cs1 | -2.63%
COc1ccccc1C(=O)N1CC(Cc2nccc3ccn(C)c23)C1 | -0.41%

SMILES | cytotoxicity at 70.5 h
Oc1nc(N2CCOCC2)nc2c1CCN(Cc1cccnc1)CC2 | -1.7%
Cc1cc(C)cc(-c2ccc(CC3(C(=O)O)CCOCC3)cc2)c1 | 31.5%
CNc1cncc(C2CCCN(S(C)(=O)=O)C2)n1 (stereo unspecified) | 0.632%
CN1CCCC(Cc2ccnc3ccncc23)CC1 (stereo unspecified) | 34.2%
CC1=NOC2(CCN(Cc3c[nH]c4ccccc34)CC2)C1 | -9.21%
CC(C)CCN1CCC2(CC1)NCc1ccccc1NC2=O | -7.94%
O=C1Nc2ccccc2CNC12CCN(CC1CC1)CC2 | -9.09%
CC(C)NC(=O)N1CCn2c(nnc2C2CCCN2)C1 (stereo unspecified) | -9.64%
O=C(Nc1ccccc1)N1CCn2c(nnc2C2CCNCC2)C1 | -9.29%
CC(C)NC(=O)c1cc(-c2ccc(S(C)(=O)=O)cc2)c2cnn(C)c2n1 | -0.443%
CC1(C(=O)NCc2cccc(C(F)(F)F)c2)CCOCC1 | -5.33%
CC1(C(=O)NCc2ccsc2)CCOCC1 | -8.16%
CC1(C(=O)NCCc2ccc(F)cc2)CCOCC1 | -7.61%
O=C(c1ccc(Cl)cc1)N1CCn2c(nn(-c3cccc(Cl)c3)c2=O)C1 | -6.26%
Cc1ccc(-n2nc3n(c2=O)CCN(C(=O)c2ccc(Cl)cc2)C3)cc1 | -10.2%
CC(C)NC(=O)N1CCC2(CC1)CN(C(=O)NC(C)C)CCO2 | -10.3%
O=C(C1CCCC1)N1CC2(CCNC2)OCc2ccccc21 (stereo unspecified) | -9.78%
O=C(c1ccccc1)N1CC2(CCNC2)OCc2ccccc21 (stereo unspecified) | -9.98%
O=C(NC1CC1)C1CCc2nnc(-c3cccnc3)n21 (stereo unspecified) | -7.6%
COc1ccccc1-c1nc(C(=O)N2CCOCC2)n2ccncc12 | -9.1%
Cn1nc(C2CCCN2)c2c(C(=O)NC3CC3)cc(C3CC3)nc21 (stereo unspecified) | 20%
Cn1nc(C2CCCNC2)c2c(C(=O)NC3CC3)cc(C3CC3)nc21 (stereo unspecified) | 13.4%
CS(=O)(=O)N1CC2(CCCN2Cc2ccc(Cl)cc2)Cc2ccccc21 (stereo unspecified) | 7.7%

SMILES | cytotoxicity at 70.5 h
CC(=O)N1CC2(CCN(Cc3ccc(Cl)cc3)C2)Cc2ccccc21 (stereo unspecified) | 5.14%
O=C(NCc1nnc2n1C(C(=O)NC1CC1)CC2)c1ccc(Cl)cc1Cl (stereo unspecified) | 4.24%
O=S1(=O)NC2(CCCN(CCc3ccccc3)C2)COc2ccccc21 (stereo unspecified) | 0.68%
CC(=O)N1CCN(c2ccc(Cl)nn2)C(=O)C1 | -7.52%
CC(C)NC(=O)N1CCN(c2ccc(Cl)nn2)C(=O)C1 | -4.88%
O=C(N1CCCC1)N1CCN(c2ccc(Cl)nn2)C(=O)C1 | -7.98%
Cc1ccc(CN2CCCC23Cc2ccccc2CNC3=O)cc1 (stereo unspecified) | 21.9%
CS(=O)(=O)N1Cc2ccccc2CC2(CCN(Cc3ccccc3)C2)C1 (stereo unspecified) | -9.03%
CS(=O)(=O)N1CC2(CCN(Cc3ccccn3)C2)Cc2ccccc21 (stereo unspecified) | -8%
CS(=O)(=O)N1CC2(CCN(CC3CC3)C2)Cc2ccccc21 (stereo unspecified) | -6.8%
CS(=O)(=O)N1CC2(CCN(C3CCCCC3)CC2)Cc2ccccc21 | -7.63%
O=C1Nc2ccccc2CN(C/C=C/c2ccccc2)C12CCNC2 (stereo unspecified) | 2.42%
CCCN1Cc2ccccc2NC(=O)C12CCNC2 (stereo unspecified) | -1.87%
O=C1NCc2ccccc2CC12CCN(Cc1ccccc1Cl)CC2 | -3.39%
COc1ccccc1CN1CCCC2(Cc3ccccc3CNC2=O)C1 (stereo unspecified) | -1.54%
c1cnc2nc(C3CCNCC3)[nH]c2c1 | -11.9%
CNCC(=O)N1CCC(c2ccnc(Nc3ccc(C)cn3)n2)C1 (stereo unspecified) | -1.4%
CCn1c(CN2CCCC(O)(c3ccc(F)cc3)CC2)cnc1SC (stereo unspecified) | -5.35%
CCn1c(CN2CCC(O)(c3ccc4c(c3)OCO4)CC2)cnc1SC | 1.92%
